Measured values from publication PMC8596301 (Frontiers in Pharmacology, 2021).
Read-outs that look alike come from different tables or passages of the source.

Key:
wild-type C57Bl/6 mice [1] = details: cited from earlier work
κOR = κOR (Homo sapiens, UniProt P41145); test: biochemical; format: binding
FLAG-mouse κOR [2] = molecular target: T1, FLAG-mouse κOR (Mus musculus, UniProt P33534); test: cell-based
T1 construct: expressed in transfected cells; host or cells: HEK cells (HEK-293), transient, co-transfected with pGloSensor22F
T1 sequence (P33534 whole entry): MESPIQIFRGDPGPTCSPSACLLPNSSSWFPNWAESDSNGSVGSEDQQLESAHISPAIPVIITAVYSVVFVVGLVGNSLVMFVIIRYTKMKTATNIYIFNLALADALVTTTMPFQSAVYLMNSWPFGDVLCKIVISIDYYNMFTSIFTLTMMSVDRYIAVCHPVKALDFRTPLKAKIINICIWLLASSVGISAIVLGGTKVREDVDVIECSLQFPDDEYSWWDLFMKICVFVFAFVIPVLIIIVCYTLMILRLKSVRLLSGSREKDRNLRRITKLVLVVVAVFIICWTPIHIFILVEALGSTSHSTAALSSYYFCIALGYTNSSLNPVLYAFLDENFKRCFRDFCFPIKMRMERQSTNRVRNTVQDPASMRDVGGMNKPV

δOR [3] = molecular target: T2, δOR (Homo sapiens, UniProt P41143); test: biochemical; format: binding
T2 sequence (P41143 whole entry): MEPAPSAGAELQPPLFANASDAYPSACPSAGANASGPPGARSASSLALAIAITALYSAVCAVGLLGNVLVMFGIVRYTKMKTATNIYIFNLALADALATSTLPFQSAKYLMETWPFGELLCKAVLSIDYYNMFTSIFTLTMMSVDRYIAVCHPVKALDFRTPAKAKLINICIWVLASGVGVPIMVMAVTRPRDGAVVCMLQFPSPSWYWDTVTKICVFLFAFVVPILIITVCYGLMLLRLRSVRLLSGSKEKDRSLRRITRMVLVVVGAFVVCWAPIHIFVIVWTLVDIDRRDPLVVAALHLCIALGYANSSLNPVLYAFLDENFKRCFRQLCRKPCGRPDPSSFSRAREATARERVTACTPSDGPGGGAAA

HA-mouse µOR [4] = molecular target: T3, HA-mouse µOR (Mus musculus, UniProt P42866); test: cell-based; details: for Emax: HEK293, read-out: cAMP α (% inhibition at maximal efficacy)
T3 construct: expressed in transfected cells; host or cells: HEK cells (HEK-293), transient, co-transfected with pGloSensor22F
T3 sequence (P42866 whole entry): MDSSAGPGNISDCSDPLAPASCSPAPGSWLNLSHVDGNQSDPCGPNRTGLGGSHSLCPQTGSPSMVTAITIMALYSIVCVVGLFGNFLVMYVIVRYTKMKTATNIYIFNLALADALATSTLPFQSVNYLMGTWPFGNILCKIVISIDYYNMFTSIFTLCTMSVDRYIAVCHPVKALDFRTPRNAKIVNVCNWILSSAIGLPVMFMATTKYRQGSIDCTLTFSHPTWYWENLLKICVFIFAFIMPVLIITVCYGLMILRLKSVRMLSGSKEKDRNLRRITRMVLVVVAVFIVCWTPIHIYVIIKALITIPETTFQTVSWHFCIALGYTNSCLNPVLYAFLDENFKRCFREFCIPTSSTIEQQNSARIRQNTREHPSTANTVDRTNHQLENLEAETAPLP

μOR = μOR (Homo sapiens, UniProt P35372); test: biochemical; format: binding
Sequence of μOR (P35372 whole entry): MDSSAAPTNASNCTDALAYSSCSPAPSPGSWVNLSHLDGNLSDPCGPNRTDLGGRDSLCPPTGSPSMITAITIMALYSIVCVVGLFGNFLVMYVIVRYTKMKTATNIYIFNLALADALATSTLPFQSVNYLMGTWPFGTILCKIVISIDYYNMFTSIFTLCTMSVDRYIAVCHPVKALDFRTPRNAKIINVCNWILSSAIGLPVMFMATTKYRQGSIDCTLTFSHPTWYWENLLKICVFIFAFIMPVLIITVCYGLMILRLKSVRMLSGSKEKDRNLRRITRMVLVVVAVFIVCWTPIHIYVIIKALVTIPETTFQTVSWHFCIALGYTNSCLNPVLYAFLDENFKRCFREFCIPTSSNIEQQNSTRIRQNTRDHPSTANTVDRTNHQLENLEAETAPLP

FLAG-mouse δOR [5] = molecular target: T4, FLAG-mouse δOR (Mus musculus, UniProt P32300); test: cell-based; details: for Emax: HEK293, read-out: cAMP α (% inhibition at maximal efficacy)
T4 construct: expressed in transfected cells; host or cells: HEK cells (HEK-293), transient, co-transfected with pGloSensor22F
T4 sequence (P32300 whole entry): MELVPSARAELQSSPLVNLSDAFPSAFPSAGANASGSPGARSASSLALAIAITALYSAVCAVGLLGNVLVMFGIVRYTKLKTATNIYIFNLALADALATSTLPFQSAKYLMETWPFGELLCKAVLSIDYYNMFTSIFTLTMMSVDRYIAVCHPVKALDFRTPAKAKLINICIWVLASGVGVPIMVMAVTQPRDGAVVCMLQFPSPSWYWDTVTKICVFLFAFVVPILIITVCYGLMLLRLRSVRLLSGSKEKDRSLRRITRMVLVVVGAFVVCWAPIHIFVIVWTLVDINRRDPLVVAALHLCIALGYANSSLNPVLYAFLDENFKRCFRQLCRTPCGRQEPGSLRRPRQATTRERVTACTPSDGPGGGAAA

HA-mouse µOR [6] = molecular target: T3, HA-mouse µOR; details: cited from earlier work
FLAG-mouse κOR [7] = molecular target: T1, FLAG-mouse κOR; design: method as in Gutridge et al., 2020; details: cited from earlier work
FLAG-mouse δOR [8] = molecular target: T4, FLAG-mouse δOR; design: method as in Gutridge et al., 2020; details: cited from earlier work
C57Bl/6 male mice [9] = test: Locomotor evaluation (ambulation); details: 7-hydroxymitragynine 3 mg∙kg^−1 i.p.; naloxone 1 mg∙kg^−1 s.c. 10 min prior; WT male mice; 90 min
C57Bl/6 male mice [10] = details: 3 mg∙kg^−1; ref Gutridge et al., 2020; cited from earlier work
δOR [11] = molecular target: T2, δOR; design: expressed in transfected cells; method as in Gutridge et al., 2020; details: ref Gutridge et al., 2020; cited from earlier work
wild-type C57Bl/6 mice [12] = test: Two-bottle choice alcohol paradigm (drinking in the dark, 10% ethanol vs. water); format: in vivo, mouse; details: WT male mice
Experimental: (§1) Mice were subject to drinking in the dark (DID), limited access (4 h per day), two-bottle choice (10% ethanol vs. water) paradigm in which they were trained to consume alcohol voluntarily as previously described ([Rhodes et al., 2005]; [van Rijn and Whistler, 2009]). Mice reached stable alcohol consumption within 3 weeks of training, and after the third week, drug injections were administered prior to the daily drinking session on Friday. Drug’s effect on alcohol consumption was measured as the change in Friday’s alcohol intake minus the average alcohol intake from the preceding Tuesday–Thursday of that week (g∙kg^−1). A summary of all statistical analyses for the drinking data can be found in Supplemental Tables S6–S9. In brief, results from two-bottle choice alcohol consumption paradigms were assessed for statistical significance using RM two-way ANOVA for main effects of drug dose, treatment day, and drug dose × treatment day; Sidak’s multiple comparisons (MC) between alcohol consumption baseline (Tuesday–Thursday average) vs. treatment day consumption (Friday) were then used as the post hoc test for each drug dose tested. The same RM two-way ANOVA and Sidak’s MC post hoc analyses were used for water consumption and ethanol preference data. […] Sex differences between baseline data were evaluated using RM two-way ANOVA for main effects of sex, treatment baseline, and sex × treatment baseline; Sidak’s multiple comparisons (MC) between male and female mice were then used as the post hoc test for each treatment week tested.

δOR KO mice = test: as above; format: in vivo, mouse; details: speciociliatine 30 mg∙kg^−1 i.p.; δOR KO male mice
Experimental: as §1

[13] = test system: wild-type and δOR KO male mice; test: Accelerating rotarod test; format: in vivo, mouse
Experimental: Mice were trained to walk on a rotarod apparatus (IITC, United States) with 1.25” diameter drums 2 days prior to drug testing. The rotarod started at 3 rpm and was increased to 30 rpm over 300 s. A trial for a mouse ended when it fell and tripped the sensor, when it rode the rotarod for two consecutive revolutions, or after 300 s (the maximum trial time)([White et al., 2015]). Mice received at least 3 min of rest between trials. On test day, baseline performance was assessed as the average latency to fall in three trials per mouse. […] Each mouse’s performance was normalized to its own baseline and reported as a percentage. A summary of all statistical analyses for the rotarod data can be found in Supplemental Table S2. In brief, data for each tested timepoint were calculated as a percentage of the baseline, and thus statistical significance was calculated in a two-tailed, one sample t test vs. a hypothetical mean of 100 (baseline was 100%). Rotarod results between WT and δOR KO genotypes were compared with a mixed-effects model with fixed effects for timepoint, genotype, and timepoint × genotype.

[14] = read-out: cAMP IC50, ref Gutridge et al., 2020
[15] = speciociliatine 3, 10 and 30 mg∙kg^−1 i.p.
[16] = 30 mg∙kg^−1 i.p., wild-type mice
[17] = 7-hydroxypaynantheine 30 mg∙kg^−1 s.c.

Sequence of κOR (P41145 whole entry): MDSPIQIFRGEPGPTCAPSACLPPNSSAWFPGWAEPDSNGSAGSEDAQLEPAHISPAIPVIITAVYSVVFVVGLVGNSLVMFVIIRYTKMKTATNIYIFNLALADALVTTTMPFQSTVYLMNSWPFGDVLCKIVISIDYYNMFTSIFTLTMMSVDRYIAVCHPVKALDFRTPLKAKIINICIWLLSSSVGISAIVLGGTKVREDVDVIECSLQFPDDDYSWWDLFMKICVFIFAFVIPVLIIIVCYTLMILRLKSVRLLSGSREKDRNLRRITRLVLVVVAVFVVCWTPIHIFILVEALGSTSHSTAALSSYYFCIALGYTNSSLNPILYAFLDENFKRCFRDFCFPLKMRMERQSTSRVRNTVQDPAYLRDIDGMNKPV

SMILES: COc1ccsc1CNCC[C@@]1(c2ccccn2)CCOC2(CCCC2)C1 [Oliceridine/TRV130, Oliceridine]
- Alcohol consumption (wild-type C57Bl/6 mice [1]; selective activation of μOR G-protein signaling, ref Gutridge et al., 2020): did not decrease alcohol consumption

SMILES: Oc1ccc2c3c1O[C@H]1c4[nH]c5ccccc5c4C[C@@]4(O)[C@@H](C2)N(CC2CC2)CC[C@]314 [naltrindole]
- Alcohol intake (wild-type C57Bl/6 mice [1]; 10 mg∙kg^−1, ref van Rijn and Whistler, 2009): does not decrease alcohol intake

SMILES: CC[C@H]1CN2CC[C@]3(Nc4cccc(OC)c4C3=O)[C@@H]2C[C@@H]1/C(=C\OC)C(=O)OC [SPG PI, Speciogynine Pseudoindoxyl]
- Ki (κOR): 0.75 µM
- IC50 (FLAG-mouse κOR [2]): 20.6 µM
- Ki (δOR [3]): 0.94 µM
- IC50 (HA-mouse µOR [4]): 0.23 µM
- Emax (HA-mouse µOR [4]): 58 ± 4%
- Ki (μOR): 0.077 µM
- IC50 (FLAG-mouse δOR [5]): 8.53 µM
- Emax (FLAG-mouse δOR [5]): 80 ± 20%

SMILES: CC[C@@H]1CN2CC[C@@]3(O)C(=Nc4cccc(OC)c43)[C@@H]2C[C@@H]1/C(=C\OC)C(=O)OC [7-OH MITRA, 7-hydroxymitragynine, reference compound]
- Minimal effective dose to reduce alcohol intake (wild-type C57Bl/6 mice [1]; ref Gutridge et al., 2020): 3 mg/kg
- cAMP α (HA-mouse µOR [6]): 84 ± 3
- Ki (κOR; Binding Ki (µM)): 0.14 µM
- Ki (δOR [3]): 0.19 µM
- cAMP α (FLAG-mouse κOR [7]; normalized to U50,488, ref Gutridge et al., 2020): 77 ± 5
- IC50 (FLAG-mouse κOR [7]; [14]): 1.04 µM
- cAMP α (FLAG-mouse δOR [8]; normalized to Leu-enkephalin, ref Gutridge et al., 2020): 80 ± 8
- IC50 (FLAG-mouse δOR [8]; [14]): 0.96 µM
- Hyperlocomotion induced by 7-hydroxymitragynine after naloxone pretreatment (C57Bl/6 male mice [9]): blocked
- Hyperlocomotion and CPP (C57Bl/6 male mice [10]): caused both hyperlocomotion and CPP
- β-arrestin 2 α (δOR [11]): 14 ± 1

SMILES: CC[C@H]1CN2CCc3c([nH]c4cccc(OC)c34)[C@@H]2C[C@@H]1/C(=C\OC)C(=O)OC [SPG, speciogynine]
- Ki (κOR; Binding Ki (µM)): 3 µM
- Ki (κOR; Binding pKi): 3.98 µM

SMILES: CC[C@@H]1CN2CCc3c([nH]c4cccc(OC)c34)[C@H]2C[C@@H]1/C(=C\OC)C(=O)OC [SPECIO, speciociliatine]
- Average decrease in ethanol consumption (wild-type C57Bl/6 mice [12]; 30 mg∙kg^−1 i.p.): 2.5 ± 0.3 g/kg
- Reduction in ethanol consumption (wild-type C57Bl/6 mice [12]; 30 mg∙kg^−1 i.p.): 90 ± 3%
- Ethanol preference (wild-type C57Bl/6 mice [12]; speciociliatine 30 mg∙kg^−1 i.p.): significantly decreased
- Ethanol consumption (wild-type C57Bl/6 mice [12]; [15]): significantly decreased ethanol consumption but only at the 30 mg∙kg^−1 dose
- Water consumption (wild-type C57Bl/6 mice [12]; [15]): did not change water consumption
- Ethanol preference (δOR KO mice): significantly decreased
- Water consumption (δOR KO mice): did not change water consumption
- Ki (κOR; Binding Ki (µM)): 0.59 µM
- Emax (FLAG-mouse κOR [2]; HEK293, read-out: cAMP α (% inhibition at maximal efficacy)): 60 ± 7%
- Ki (δOR [3]): 4.34 µM
- Seizure level observed in the rotarod assay ([13]; 30 mg/kg i.p., one δOR KO mouse): 5–6
- Mortality in the rotarod assay ([13]; 30 mg/kg i.p., δOR KO mice (n = 8)): one δOR KO mouse died
- Rotarod performance (latency to fall, % of baseline) [13, 16]: significantly reduced the ability
- Time of full recovery on rotarod [13, 16]: 120 min
- Rotarod performance ([13]; 30 mg∙kg^−1 i.p., δOR KO mice): same effect was observed

SMILES: C=CC1CN2CCC3(Nc4cccc(OC)c4C3=O)C2CC1C(=COC)C(=O)OC (centres unmarked) [PAYN PI, Paynantheine Pseudoindoxyl]
- Ki (κOR; Binding Ki (µM)): 1.31 µM
- Ki (δOR [3]): 0.92 µM
- IC50 (HA-mouse µOR [4]): 4.82 µM
- Emax (HA-mouse µOR [4]): 60 ± 6%
- Ki (μOR): 0.68 µM

SMILES: Oc1ccc2c3c1O[C@H]1c4oc5ccccc5c4C[C@@]4(O)[C@@H](C2)N(CC2CC2)CC[C@]314 [naltriben]
- Alcohol consumption (wild-type C57Bl/6 mice [1]; 6 and 10 mg∙kg^−1, ref van Rijn and Whistler, 2009): dose-dependently decreases alcohol consumption

SMILES: C=C[C@H]1CN2CC[C@@]3(O)C(=Nc4cccc(OC)c43)[C@@H]2C[C@@H]1/C(=C\OC)C(=O)OC [7OH PAYN, 7-Hydroxypaynantheine]
- Decrease in ethanol consumption (wild-type C57Bl/6 mice [12]; 30 mg∙kg^−1 s.c.): 1.1 ± 0.3 g/kg
- Reduction in ethanol consumption (wild-type C57Bl/6 mice [12]; 30 mg∙kg^−1 s.c.): 40 ± 11%
- Ethanol preference (wild-type C57Bl/6 mice [12]; [17]): corresponding decrease in ethanol preference
- Water consumption (wild-type C57Bl/6 mice [12]; [17]): concomitant increase in water consumption
- Alcohol intake (wild-type C57Bl/6 mice [12]; 7-hydroxypaynantheine 10 and 30 mg∙kg^−1 s.c.): significantly reduce alcohol intake
- Ki (κOR; Binding Ki (µM)): 7.46 µM
- Ki (δOR [3]): 12.7 µM
- IC50 (HA-mouse µOR [4]): 21.8 µM
- Emax (HA-mouse µOR [4]): 80 ± 40%
- Ki (μOR): 6.15 µM
- IC50 (FLAG-mouse δOR [5]): 5.74 µM
- Emax (FLAG-mouse δOR [5]): 70 ± 20%
